Assay results taken from paper PMC9119168 (Antiviral Research, 2022).

How the values were obtained:
[1] = molecular target: SARS-CoV Mac1 (Severe acute respiratory syndrome coronavirus, UniProt P0C6X7); format: binding; conditions: read-out: AS assay IC50 SARS-CoV
[2] = molecular target: MERS-CoV Mac1 (Middle East respiratory syndrome-related coronavirus, UniProt K9N7C7); format: binding; conditions: read-out: IC50 AS MERS
[3] = molecular target: T1, SARS-CoV-2 Mac1 (Severe acute respiratory syndrome coronavirus 2, UniProt P0DTD1); conditions: read-out: IC50 Mac1 mono-ARH activity; ref Dasovich et al., 2022; cited from earlier work
[4] = tested on: mammalian cells; conditions: cited from earlier work
[5] = molecular target: T1, SARS-CoV-2 Mac1; test: Differential scanning fluorimetry; format: binding
[6] = tested on: Mac1; conditions: ref Ni et al., 2021; cited from earlier work

Chain of MERS-CoV Mac1 (K9N7C7 1110-1276 limits assumed): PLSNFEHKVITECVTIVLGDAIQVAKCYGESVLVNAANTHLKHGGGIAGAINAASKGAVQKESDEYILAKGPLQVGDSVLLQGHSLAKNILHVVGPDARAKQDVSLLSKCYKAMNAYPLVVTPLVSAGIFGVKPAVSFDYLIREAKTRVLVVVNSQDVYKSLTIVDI

Nc1ncnc2c1ncn2[C@@H]1O[C@H](COP(=O)(O)OP(=O)(O)OC[C@H]2OC(O)[C@H](O)[C@@H]2O)[C@@H](O)[C@H]1O (stereo partly drawn) [ADP-ribose] showed an IC50 [1] of 240 nM and an IC50 [2] of 1250 ± 230 nM.

For Cc1nc(Nc2ncc(C(=O)Nc3c(C)cccc3Cl)s2)cc(N2CCN(CCO)CC2)n1 [Dasatinib], the IC50 [3] is given as ~50000 nM and the “toxicity to mammalian cells (in words)” value [4] is given as “toxic to mammalian cells”.

With Nc1ncnc2c1ncn2[C@@H]1O[C@H](COP(=O)(O)OP(=O)(O)OP(=O)(O)O)[C@@H](O)[C@H]1O [ATP] the “thermal shift of Mac1 in DSF (in words)” value [5] was “no effect”.

In the case of N#C[C@@]1(c2ccc3c(N)ncnn23)O[C@H](CO)[C@@H](O)[C@H]1O [GS-441524], the “binding to Mac1 (in words)” value [6] is listed as “bound to Mac1”.
